Here are results for 10 compounds from patent US4032659A (priority 1975, dated 1977).

Entries after “also recorded” stand apart in the source; their conditions may differ.

Data set [1] has as its system Influenza B Massachusetts virus. The data set can be described thus: Chemoprophylaxis of Influenza B Massachusetts virus infection in mice. The settings on record: oral. The class given is in vivo, mouse. The method, then:
The activity of four compounds on Influenza B Mass. was tested in mice.
A portion of a commercially available sample of amantadine was recrystallized from isopropanol. The activity of the material against Influenza B Mass. was tested for the sample as obtained, the recrystallized portion, and the mother liquor obtained from recrystallizing the portion.

Data set [2] concerns Influenza Ann Arbor virus. The data set can be described thus: Chemoprophylaxis of Influenza Ann Arbor (A1) virus infection in mice. The class given is in vivo, mouse. The settings on record: oral.

As to `N=C(N)NN` [aminoguanidine, bicarbonate], the Survivors is recorded as 0 in data set [1] (total dose 40pg); 0 in data set [1] (total dose 4ng); 1 in data set [1] (total dose 40ng); 1 in data set [1] (total dose 400ng); 1 in data set [1] (total dose 4μg).
In the case of `NC12CC3CC(CC(C3)C1)C2` [Recrystallized amantadine, amantadine, reference compound], the “No. animals surviving after 11 days” value is 4 in data set [1] (total dose 60 ng); 3 in data set [1] (total dose 600 ng); 5 in data set [1] (total dose 6 μg); 5 in data set [1] (total dose 60 μg); 3 in data set [1] (total dose 600 μg); 6 in data set [1] (total dose 6 mg). The Survivors in data set [1] (total dose 60 ng) was found to be 2; in data set [1] (total dose 600 ng), 3; in data set [1] (total dose 6 μg), 5; in data set [1] (total dose 60 μg) it was 2; in data set [1] (total dose 600 μg) it was 2; in data set [1] (total dose 6 mg), 4.
On to `NC12CC3CC(CC(C3)C1)C2` [Commercial amantadine, amantadine, reference compound], for which the “No. animals surviving after 11 days” value in data set [1] (total dose 60 ng) worked out at 3; in data set [1] (total dose 600 ng), 3; in data set [1] (total dose 6 μg), 7; in data set [1] (total dose 60 μg), 3; in data set [1] (total dose 600 μg) it was 5; in data set [1] (total dose 6 mg) it was 4. For the same compound, the Survivors in data set [1] (total dose 60 ng) is recorded as 0; in data set [1] (total dose 600 ng), 3; in data set [1] (total dose 6 μg), 5; in data set [1] (total dose 60 μg), 2; in data set [1] (total dose 600 μg), 5; in data set [1] (total dose 6 mg) it was 2.
Turning to `NC(N)=NN=Cc1c(Cl)cccc1Cl` [[(2,6-dichlorobenzylidine)amino]guanidine acetate], the “No. animals surviving after 6 days” value in data set [2] (total dose 30 pg) worked out at 4; in data set [2] (total dose 300 pg), 2; in data set [2] (total dose 3 ng) it was 4; in data set [2] (total dose 30 ng), 1; in data set [2] (total dose 300 ng) it was 1; in data set [2] (total dose 3 μg) it was 2. The “No. animals surviving after 6 days” value worked out at 3 in data set [2] (total dose 30 μg) and 1 in data set [2] (total dose 300 μg). The Survivors in data set [2] (total dose 30 pg) amounted to 0; in data set [2] (total dose 300 pg), 1; in data set [2] (total dose 3 ng), 0; in data set [2] (total dose 30 ng), 0; in data set [2] (total dose 300 ng) it was 0; in data set [2] (total dose 3 μg), 0. The Survivors in data set [2] (total dose 30 μg) and in data set [2] (total dose 300 μg) was 0 each time. Further, the Toxicity entry in data set [2] (total dose 3 mg) is listed as “Toxic”.
Turning to `CC(C)=NNC(N)=S` [acetone, thiosemicarbazone], the “No. animals surviving after 6 days” value in data set [2] (total dose 30 pg) was found to be 3; in data set [2] (total dose 300 pg) it was 2; in data set [2] (total dose 3 ng) it was 2; in data set [2] (total dose 30 ng), 2; in data set [2] (total dose 300 ng) it was 3; in data set [2] (total dose 3 μg), 5. The “No. animals surviving after 6 days” value worked out at 2 in data set [2] (total dose 30 μg) and 3 in data set [2] (total dose 300 μg). Also, the Survivors amounted to 1 in data set [2] (total dose 30 pg); 0 in data set [2] (total dose 300 pg); 0 in data set [2] (total dose 3 ng); 0 in data set [2] (total dose 30 ng); 0 in data set [2] (total dose 300 ng); 0 in data set [2] (total dose 3 μg). Besides, the Survivors in data set [2] (total dose 30 μg) and in data set [2] (total dose 300 μg) was 0 in each case.
Take `CNN` [Methylhydrazine, methylhydrazine]: the “No. animals surviving after 6 days” value in data set [2] (total dose 30 pg) was 2; in data set [2] (total dose 300 pg), 3; in data set [2] (total dose 3 ng), 3; in data set [2] (total dose 30 ng) it was 4; in data set [2] (total dose 300 ng), 1; in data set [2] (total dose 3 μg), 3. Further, the “No. animals surviving after 6 days” value in data set [2] (total dose 30 μg) amounted to 3; in data set [2] (total dose 300 μg), 1. In addition, the Survivors worked out at 1 in data set [2] (total dose 30 pg); 0 in data set [2] (total dose 300 pg); 1 in data set [2] (total dose 3 ng); 1 in data set [2] (total dose 30 ng); 0 in data set [2] (total dose 300 ng); 0 in data set [2] (total dose 3 μg). The Survivors in data set [2] (total dose 30 μg) is given as 1; in data set [2] (total dose 300 μg), 0. Also, the Toxicity entry in data set [2] (total dose 3 mg) is “Toxic; also recorded: Toxic?”.
As to `NC(N)=S` [Thiourea], the “No. animals surviving after 7 days” value in data set [2] (total dose 30 pg) came to 2; in data set [2] (total dose 300 pg), 4; in data set [2] (total dose 3 ng), 3; in data set [2] (total dose 30 ng), 4; in data set [2] (total dose 300 ng), 2; in data set [2] (total dose 3 μg), 7. The “No. animals surviving after 7 days” value in data set [2] (total dose 30 μg) was 3; in data set [2] (total dose 300 μg), 6; in data set [2] (total dose 3 mg), 5. Further, the Survivors turned out to be 0 in data set [2] (total dose 30 pg); 0 in data set [2] (total dose 300 pg); 1 in data set [2] (total dose 3 ng); 0 in data set [2] (total dose 30 ng); 0 in data set [2] (total dose 300 ng); 0 in data set [2] (total dose 3 μg). Besides, the results for the Survivors in data set [2] (total dose 30 μg), in data set [2] (total dose 300 μg) and in data set [2] (total dose 3 mg) were 0, 1 and 0, respectively.
`CCC(C)=NNC(=N)N.O=[N+]([O-])O` [1-(sec-butylideneamino)guanidine, nitrate]: the “No. animals surviving after 7 days” value is on record as 0 in data set [2] (total dose 3 ng); 1 in data set [2] (total dose 30 ng); 3 in data set [2] (total dose 300 ng); 0 in data set [2] (total dose 3 μg); 2 in data set [2] (total dose 30 μg); 0 in data set [2] (total dose 300 μg). The Survivors in data set [2] (total dose 3 ng) stood at 0; in data set [2] (total dose 30 ng), 0; in data set [2] (total dose 300 ng), 2; in data set [2] (total dose 3 μg), 0; in data set [2] (total dose 30 μg), 2; in data set [2] (total dose 300 μg), 0.
Regarding `O=C(CCNNC(=O)c1ccncc1)NCc1ccccc1` [Nialamide, nialamide, reference compound], the Survivors was found to be 1 in data set [2] (total dose 400pg); 1 in data set [2] (total dose 4ng); 0 in data set [2] (total dose 40ng); 0 in data set [2] (total dose 400ng); 0 in data set [2] (total dose 4μg); 2 in data set [2] (total dose 400 μg). In addition, the Survivors in data set [2] (total dose 4 mg) is 1.
Consider `NC(=S)NN=C1CCCCC1` [Cyclohexanone, thiosemicarbazone], for which the “No. animals surviving after 11 days” value in data set [1] (total dose 5pg) amounted to 7; in data set [1] (total dose 50pg), 4; in data set [1] (total dose 500pg) it was 2; in data set [1] (total dose 5ng), 3; in data set [1] (total dose 50ng), 7; in data set [1] (total dose 500ng), 2. The “No. animals surviving when 16/20 of controls are dead” value in data set [1] (total dose 5pg) came to 5; in data set [1] (total dose 50pg) it was 3; in data set [1] (total dose 500pg) it was 2; in data set [1] (total dose 5ng), 2; in data set [1] (total dose 50ng), 7; in data set [1] (total dose 500ng), 1. In addition, the Survivors in data set [1] (total dose 5pg) turned out to be 5; in data set [1] (total dose 50pg), 2; in data set [1] (total dose 500pg), 2; in data set [1] (total dose 5ng) it was 2; in data set [1] (total dose 50ng), 5; in data set [1] (total dose 500ng) it was 1.
